Legend:
[1] = tested on: human umbilical vein endothelial cells (HUVECs); experiment: 3D in vitro endothelial sprouting and tube formation assay; format: cell-based
Description: A three-dimensional (3D) in vitro endothelial sprouting and tube formation assay was utilized to define the anti-angiogenic potency of tasquinimod vs. these metabolites. In this 3D assay, human umbilical endothelial cells (i.e., HUVECs) are initially grown on microcarrier beads and the cell coated beads embedded in fibrin gels with media conditioned by normal human lung fibroblasts. Under these 3D-conditions, endothelial cells “sprout” producing 3D neovessel tubes with patent lumen within one week, Figure 4A - left panel. When tasquinimod is added at the initiation to these 3D-cultures, sprouting of the endothelial cells is inhibited, Figure 4B-right panel, with the potency for such inhibition, expressed as an IC50 value (i.e., the concentration of drug which inhibits by 50% the endothelial sprouting) of 0.5 μM, Figure 4C. […] Using this 3D-HUVEC assay, the potency (i.e., expressed as IC50) of tasquinimod metabolites to inhibit endothelial sprouting was compared to tasquinimod. […] To further confirm that tasquinimod itself and not the carboxamide-N-demethylated metabolite is the active drug, the response to ketoconazole alone and in combination with tasquinimod was tested in the 3D-endothelial sprouting assay.
The 3-dimensional (3D) in vitro angiogenic sprouting and tube formation assay was used as described previously. This 3D-endothelial sprouting assay was conducted using a minimum of 5 replicate wells per drug dose per experiment, repeated 3 independent times using human umbilical vein endothelial cells (HUVECs; Lonza Walkersville, Inc.) with modification that 20 μL of 10X concentrated Dulbecco's Modified Eagle's Media/10%FCS media conditioned by confluent human primary lung fibroblasts (Lonza) diluted to 200 μL of growth factor supplemented EGM-2 media (Lonza) was used instead of fibroblast co-culture.

[2] = tested on: CWR-22Rv1 human prostate cancer cells; experiment: Plasma membrane associated vs nuclear drug uptake in CWR-22Rv1 cells; format: cell-based
Protocol: Based upon these preliminary validation, cells were incubated in 10% fetal bovine serum (FBS) supplemented media containing 1μM ^14C-labeled tasquinimod for <10 minutes. When these cells are rapidly (< 20sec) separated from the media by vacuum filtration onto glass microfiber filter and the filters rapidly (< 20sec) washed, radiolabeled drug is retained by the washed cells and this radioactivity can be used to calculate the total cell associated concentration of drug (CAt). If instead after the washes, media are added above the filters and allowed to remain for a 15 minutes “wash out” period before being vacuumed off and subsequently rapidly (< 20sec) washed with drug free media, […]. […] Thus, total plasma membrane associated drug concentration (PMt) is determined by subtracting the ICt from the CAt value.
To determine the total nuclear concentration of drug (Nt), a modified protocol was needed to allow the rapid lyses of cells and rapid isolation of cell nuclei by differential centrifugation. This could not be accomplished using the usual method of detergent lyses because detergents extract bound drug due to its lipophilicity. Therefore, a detergent free protocol using nitrogen cavitation was developed to rapidly lyse cells and allow the rapid isolation of nuclei via differential centrifugation. Using this cavitation protocol, it was documented that within 1 hour, total nuclear drug concentration (Nt) equals that of the protein-free drug concentration in the media (i.e., 0.2 μM), and that after 4 hours equals PMt (i.e., see Figure 3B, right panel for representative results for the CWR-22Rv1 cells). From 8 hours onward, Nt is more than 10 fold higher than the free and 2 fold higher than the total drug concentration in the media, Figure 3B, right panel. For example at 24 hours post exposure to 1 μM tasquinimod in 10% FBS containing media, the Nt is 2.4 ± 0.3 μM, Figure 3B, right panel. At this 24 hours period, total radioactive drug in isolated nuclei from all 3 prostate cancer lines, as well as HUVEC cells (i.e., nuclear concentration in these 4 lines ranged from 2.2-3.1 μM) was extracted with acetonitrile and the extracts analyzed by HPLC. […] To resolve this, nuclear uptake was determined 24 hours post exposure to 1 μM tasquinimod in serum free media. These studies again documented that nuclear tasquinimod concentration in these 4 cell lines ranged from 2.5-3.5 μM documenting that binding to albumin is not required for cell uptake.
A rapid filtration method was developed and validated to measures the kinetics of tasquinimod cell uptake on a series of human cell lines. To do this, exponentially growing cells in a tissue culture flask are trypsinized, and the number of single cells counted and their average diameter determined electronically using Cellometer AutoT4 (Nexcelom, Lawrence, MA). Then multiple replicates (N=3-6) of 10^7 cells per time point were incubated from 5 minutes to 48 hours. at 37°C in 1ml of tissue culture media containing 10% fetal bovine serum (FBS) plus 1μM ^14C-labeled tasquinimod. The cells in each replicate incubation were then rapidly separated from the tasquinimod containing media by vacuum filtration onto a 24mm Whatman GF/C glass microfiber filter (GE Healthcare Sciences, Piscataway, NJ) using a Millipore 1225 sampling manifold (Millipore, Billerica MA). The filters are then rapidly washed and filtered (<20 seconds per wash) 3 times with 2mls of drug free FBS containing tissue culture media. Half of the replicate filters are then dried overnight and counted for determination of the total cell associated amount of drug (i.e., plasma membrane associated plus intracellular uptake). To the remaining half of the replicate filters, 2mls of drug free FBS containing tissue culture media is added above the filters and allowed to remain there for 15 minutes before being filtered off. […]

[3] = tested on: HUVEC cells; experiment: In vitro cell metabolism in HUVEC; format: in vitro ADME, human; details: HUVEC, 1 μM, 48 hours
Protocol: The nuclear uptake results are consistent with tasquinimod being the active drug for both direct therapeutic effects on cancer cells and indirect effects via suppression of the angiogenic response of host endothelial cells. To confirm these conclusions, the concentration of tasquinimod metabolites produced by endothelial cells was compared to the potency of these metabolites for inhibiting angiogenesis. When HUVEC cells are exposed to 1 μM of ^14C-labeled tasquinimod for 48 hours, < 15% of the drug is metabolized with 10% (i.e., 100 nM) being converted to the quinoline-O-demethylated compound and < 2% (i.e., < 20 nM) being converted to the quinoline-N-demethylated or carboxamide-N-demethylated compounds.
For in vitro studies, cells were incubated with 1μM ^14C-labeled tasquinimod for indicated time period and then the media and cells or cell nuclei separately harvested, deproteinated with acetonitrile, and metabolites separated by HPLC and quantitated as described above.

With `COc1cccc2c1c(O)c(C(=O)N(C)c1ccc(C(F)(F)F)cc1)c(=O)n2C` [Tasquinimod] the “sprouting of HUVEC cells in 3-D culture” value ([1]; 1μM, 5 days co-treatment with conditioned media from fibroblasts) was “Lack of sprouting”, the IC50 ([1]; Homo sapiens, HUVEC, 3D-HUVEC sprouting assay, read-out: IC50 (concentration of drug which inhibits by 50% the endothelial sprouting)) was roughly 500 nM and the “time to steady state PMt” value ([2]; 1 μM in 10% FBS media) was 5 to 10 min. For the same compound, the “total plasma membrane associated drug concentration (PMt), steady state” value ([2]; 1 μM in 10% FBS media, maintained to 48 hours) was ~ 1 μM, the “total nuclear drug concentration (Nt)” value ([2]; 24 hours post exposure to 1 μM in 10% FBS containing media) was 2.4 ± 0.3 µM and the “Nt relative to free drug concentration in the media” value ([2]; from 8 hours onward) was “more than 10 fold”. The “Nt relative to total drug concentration in the media” value ([2]; from 8 hours onward) was greater than 2 fold, the “total nuclear drug concentration (Nt)” value ([2]; within 1 hour, 1 μM in 10% FBS media) was 0.2 µM and the drug metabolized [3] was less than 15%.
